# Measurements: patent US20250195521A1 (Revolution Medicines, Inc., priority 2020, published 2025)
# Experiments:
# [1] = biological target: KRAS Q61H binding to BRAF RBD (Homo sapiens (Human), UniProt P01116+P62937, Q61H); test: Ras-Raf disruption/FRET/MOA assay, KRAS Q61H; type: biochemical
# Excerpt: (§1) Disruption of B-Raf Ras-binding Domain (BRAF^RBD) Interaction with K-Ras by Compounds of the Invention (also called a FRET assay or an MOA assay)
# (§2) Note—The following protocol describes a procedure for monitoring disruption of K-Ras G12C(GMP-PNP) binding to BRAF^RBD by a compound of the invention. This protocol may also be executed substituting other Ras proteins or nucleotides.
# (§3) The purpose of this biochemical assay was to measure the ability of test compounds to facilitate ternary complex formation between a nucleotide-loaded K-Ras isoform and Cyclophilin A; the resulting ternary complex disrupts binding to a BRAF^RBD construct, inhibiting K-Ras signaling through a RAF effector. Data is reported as IC50 values.
# (§4) In assay buffer containing 25 mM HEPES pH 7.3, 0.002% Tween20, 0.1% BSA, 100 mM NaCl and 5 mM MgCl2, tagless Cyclophilin A, His6-K-Ras-GMPPNP, and GST-BRAF^RBD were combined in a 384-well assay plate at final concentrations of 25 μM, 12.5 nM and 50 nM, respectively. Compound was present in plate wells as a 10-point 3-fold dilution series starting at a final concentration of 30 μM. After incubation at 25° C. for 3 hours, a mixture of Anti-His Eu—W1024 and anti-GST allophycocyanin was then added to assay sample wells at final concentrations of 10 nM and 50 nM, respectively, and the reaction incubated for an additional 1.5 hours. […] Compounds that facilitate disruption of a K-Ras: RAF complex were identified as those eliciting a decrease in the TR-FRET ratio relative to DMSO control wells.
# NCI-H358 (K-Ras G12C) = test: CellTiter-Glo cell viability assay, NCI-H358; type: cell-based, human; settings: Homo sapiens, NCI-H358, 120 h, 5-day treatment; read-out: H358 Cell Viability assay data (K-Ras G12C, IC50)
# Method in brief: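 After direct compound addition, plates were incubated to day 5 and equilibrated at room temperature for about 30 minutes before CellTiter-Glo reading. Values derive from luminescence relative to the DMSO mean, fitted with a four-parameter logistic model.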
# [2] = biological target: K-Ras G12C(GMP-PNP) binding to BRAF RBD (Homo sapiens (Human), UniProt P01116+P62937, G12C); test: Disruption of BRAF RBD interaction with K-Ras (FRET / MOA assay), K-Ras G12C; type: biochemical; settings: read-out: KRAS G12C FRET IC50
# Method in brief: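 TR-FRET readout: after 3 h compound incubation at 25 °C, anti-His Eu and anti-GST allophycocyanin (10 and 50 nM final) added for a further 1.5 h. Dilution series was 10-point, 3-fold, top 30 μM final. Ras–cyclophilin A ternary complex formation blocks the BRAF RBD interaction; IC50 derived from reduced FRET ratio relative to DMSO.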
# [3] = biological target: NRAS Q61R binding to BRAF RBD (Homo sapiens (Human), UniProt P01111+P62937, Q61R); test: Ras-Raf disruption/FRET/MOA assay, NRAS Q61R; type: biochemical
# Excerpt: as §1, §2, §3, §4
# [4] = biological target: NRAS Q61K binding to BRAF RBD (Homo sapiens (Human), UniProt P01111+P62937, Q61K); test: Ras-Raf disruption/FRET/MOA assay, NRAS Q61K; type: biochemical
# Excerpt: as §1, §2, §3, §4
# [5] = biological target: NRAS G12C binding to BRAF RBD (Homo sapiens (Human), UniProt P01111+P62937, G12C); test: Ras-Raf disruption/FRET/MOA assay, NRAS G12C; type: biochemical
# Excerpt: as §2, §3
# as §4, with “Compound” for “In assay buffer containing 25 mM HEPES pH 7.3, 0.002% Tween20, 0.1% BSA, 100 mM NaCl and 5 mM MgCl2, tagless Cyclophilin A, His6-K-Ras-GMPPNP, and GST-BRAF^RBD were combined in a 384-well assay plate at final concentrations of 25 μM, 12.5 nM and 50 nM, respectively. Compound”
# [6] = biological target: NRAS WT binding to BRAF RBD (Homo sapiens (Human), UniProt P01111+P62937); test: Ras-Raf disruption/FRET/MOA assay, NRAS WT; type: biochemical
# Excerpt: as §1, §2, §3, §4
# [7] = biological target: KRAS G13D binding to BRAF RBD (Homo sapiens (Human), UniProt P01116+P62937, G13D); test: Ras-Raf disruption/FRET/MOA assay, KRAS G13D; type: biochemical
# Excerpt: as §2, §3
# as §4, with “Compound” for “In assay buffer containing 25 mM HEPES pH 7.3, 0.002% Tween20, 0.1% BSA, 100 mM NaCl and 5 mM MgCl2, tagless Cyclophilin A, His6-K-Ras-GMPPNP, and GST-BRAF^RBD were combined in a 384-well assay plate at final concentrations of 25 μM, 12.5 nM and 50 nM, respectively. Compound”
# [8] = tested on: K-Ras G12C (NCI-H358 cells); test: Potency assay: pERK in NCI-H358 cells; type: cell-based, human; settings: Homo sapiens; NCI-H358 cells, 4 hours; read-out: pERK EC50 (H358 KRAS G12C)
# Method in brief: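 Cells plated the day before were exposed for 4 h at 37° C, 5% CO2 to a 10-point, 3-fold DMSO dilution series (10 mM top stock), in duplicate. Phospho-ERK was read by AlphaLISA SureFire Ultra or by In-Cell Western with DRAQ5 DNA stain, and IC50 came from a 4-parameter sigmoidal fit.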
# Chain of NRAS Q61R binding to BRAF RBD (P01111 whole entry Q61R): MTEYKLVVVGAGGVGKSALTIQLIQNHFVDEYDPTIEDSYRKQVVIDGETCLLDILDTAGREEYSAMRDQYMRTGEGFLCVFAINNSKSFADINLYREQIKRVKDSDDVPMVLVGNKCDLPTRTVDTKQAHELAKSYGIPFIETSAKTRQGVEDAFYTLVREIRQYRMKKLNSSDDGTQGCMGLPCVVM
# Chain of NRAS Q61R binding to BRAF RBD (P62937 whole entry): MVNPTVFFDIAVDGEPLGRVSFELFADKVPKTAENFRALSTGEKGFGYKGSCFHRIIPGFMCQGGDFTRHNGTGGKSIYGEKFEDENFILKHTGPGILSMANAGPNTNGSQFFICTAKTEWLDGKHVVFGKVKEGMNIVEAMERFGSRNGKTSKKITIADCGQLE
# Chain of NRAS Q61K binding to BRAF RBD (P01111 whole entry Q61K): as the sequence (P01111 whole entry Q61R) above, with R61K counted along it
# Chain of NRAS Q61K binding to BRAF RBD (P62937 whole entry): as the sequence (P62937 whole entry) above
# Chain of NRAS WT binding to BRAF RBD (P01111 whole entry): as the sequence (P01111 whole entry Q61R) above, with R61Q counted along it
# Chain of NRAS WT binding to BRAF RBD (P62937 whole entry): as the sequence (P62937 whole entry) above
# Chain of KRAS Q61H binding to BRAF RBD (P01116 other isoform, or with tags, fused parts or gaps Q61H): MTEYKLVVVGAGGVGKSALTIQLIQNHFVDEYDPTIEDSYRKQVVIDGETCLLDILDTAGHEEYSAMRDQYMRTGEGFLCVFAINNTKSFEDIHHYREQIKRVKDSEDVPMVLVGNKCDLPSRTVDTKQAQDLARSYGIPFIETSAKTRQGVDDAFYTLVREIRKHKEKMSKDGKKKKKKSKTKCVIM
# Chain of KRAS Q61H binding to BRAF RBD (P62937 whole entry, the tested form may be a part): as the sequence (P62937 whole entry) above
# Chain of NRAS G12C binding to BRAF RBD (P01111 whole entry G12C): as the sequence (P01111 whole entry Q61R) above, with G12C, R61Q counted along it
# Chain of NRAS G12C binding to BRAF RBD (P62937 whole entry): as the sequence (P62937 whole entry) above
# Chain of K-Ras G12C(GMP-PNP) binding to BRAF RBD (P01116 other isoform, or with tags, fused parts or gaps G12C): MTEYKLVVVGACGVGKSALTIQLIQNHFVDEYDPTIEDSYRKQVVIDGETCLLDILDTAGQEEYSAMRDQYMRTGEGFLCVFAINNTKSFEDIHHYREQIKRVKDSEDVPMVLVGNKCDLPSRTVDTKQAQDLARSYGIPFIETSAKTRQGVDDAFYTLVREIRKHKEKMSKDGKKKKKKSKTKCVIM
# Chain of K-Ras G12C(GMP-PNP) binding to BRAF RBD (P62937 whole entry): as the sequence (P62937 whole entry) above
# Chain of KRAS G13D binding to BRAF RBD (P01116 other isoform, or with tags, fused parts or gaps G13D): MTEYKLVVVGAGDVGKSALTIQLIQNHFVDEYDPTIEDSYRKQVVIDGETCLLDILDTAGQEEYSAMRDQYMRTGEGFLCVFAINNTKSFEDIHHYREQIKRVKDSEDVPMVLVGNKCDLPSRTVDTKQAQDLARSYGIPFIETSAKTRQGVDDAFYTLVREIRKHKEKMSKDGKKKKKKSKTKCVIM
# Chain of KRAS G13D binding to BRAF RBD (P62937 whole entry): as the sequence (P62937 whole entry) above
Structure (SMILES),IC50 [1] [nM],IC50 (NCI-H358 (K-Ras G12C)) [nM],IC50 [2] [nM],IC50 [3] [nM],IC50 [4] [nM],IC50 [5] [nM],IC50 [6] [nM],IC50 [7] [nM],EC50 [8] [nM]
"C=CC(=O)N1CC[C@H](C(=O)N(C)[C@H](C(=O)N[C@H]2Cc3cccc(c3)-c3ccc4c(c3)c(c(-c3cccnc3[C@H](C)OC)n4CC)CC(C)(C)COC(=O)[C@@H]3CCCN(N3)C2=O)[C@H](C)C(F)(F)F)C1 (atropisomer, axis not shown) [Compound A641]",1000 to 10000,10 to 100,100 to 1000,1000 to 10000,1000 to 10000,100 to 1000,1000 to 10000,1000 to 10000,< 5000
"CC[C@H](COC1CN(C(=O)C#CC(C)(C)N(C)C)C1)C(=O)N[C@H]1Cc2nc(cs2)-c2ccc3c(c2)c(c(-c2cccnc2[C@H](C)OC)n3CC)CC(C)(C)COC(=O)[C@@H]2CCCN(N2)C1=O (atropisomer, axis not shown) [Compound A660]",100 to 1000,< 10,< 10,1000 to 10000,100 to 1000,< 10,100 to 1000,1000 to 10000,< 5000
"CC[C@@H](COC1CN(C(=O)C#CC(C)(C)N(C)C)C1)C(=O)N[C@H]1Cc2nc(cs2)-c2ccc3c(c2)c(c(-c2cccnc2[C@H](C)OC)n3CC)CC(C)(C)COC(=O)[C@@H]2CCCN(N2)C1=O (atropisomer, axis not shown) [Compound A705]",1000 to 10000,< 10,< 10,> 10000,1000 to 10000,< 10,1000 to 10000,> 10000,< 5000
CCn1c(-c2cncnc2)c2c3cc(ccc31)-c1csc(n1)C[C@H](NC(=O)[C@H](C(C)C)N(C)C(=O)[C@H]1CCN(S(=O)(=O)CC)C1)C(=O)N1CCC[C@H](N1)C(=O)OCC(C)(C)C2 [Compound A170],> 10000,100 to 1000,1000 to 10000,> 10000,> 10000,1000 to 10000,> 10000,> 10000,–
C=C(C)C(=O)N1CC(N(C)C(=O)N(C)[C@H](C(=O)N[C@H]2Cc3nc(cs3)-c3ccc4c(c3)c(c(-c3cccnc3[C@H](C)OC)n4CC)CC(C)(C)COC(=O)[C@@H]3CCCN(N3)C2=O)C(C)C)C1 [Compound A359],1000 to 10000,–,–,1000 to 10000,1000 to 10000,–,1000 to 10000,–,–
C=CC(=O)N1CC[C@H](C(=O)N(C)[C@H](C(=O)N[C@H]2CC3CN(CCO3)c3ccc4c(c3)c(c(-c3cccnc3[C@H](C)OC)n4CC)CC(C)(C)COC(=O)[C@@H]3CCCN(N3)C2=O)C(C)C)C1 [Compound A378],> 10000,100 to 1000,–,> 10000,> 10000,100 to 1000,1000 to 10000,> 10000,< 5000
C=CC(=O)N1CC[C@H](C(=O)C2CC[C@H](C)[C@H]2C(=O)N[C@H]2Cc3cccc(c3)-c3ccc4c(c3)c(c(-c3cccnc3[C@H](C)OC)n4CC)CC(C)(C)COC(=O)[C@@H]3CCCN(N3)C2=O)C1 (stereo partly drawn) [Compound A494],100 to 1000,–,–,1000 to 10000,1000 to 10000,100 to 1000,1000 to 10000,> 10000,< 5000
C=CC(=O)N(C)CCN1CCN(C(=O)N(C)[C@H](C(=O)N[C@H]2C[n+]3cccc(c3)-c3ccc4c(c3)c(c(-c3cccnc3[C@H](C)OC)n4CC)CC(C)(C)COC(=O)[C@@H]3CCCN(N3)C2=O)C(C)C)CC1 [Compound A539],100 to 1000,100 to 1000,100 to 1000,100 to 1000,100 to 1000,100 to 1000,100 to 1000,1000 to 10000,–

# Now from value to compound:
IC50 [1] [nM],IC50 (NCI-H358 (K-Ras G12C)) [nM],IC50 [2] [nM],IC50 [3] [nM],IC50 [4] [nM],IC50 [5] [nM],IC50 [6] [nM],IC50 [7] [nM],EC50 [8] [nM],Structure (SMILES)
> 10000,10 to 100,10 to 100,> 10000,> 10000,10 to 100,> 10000,> 10000,< 5000,"CCn1c(-c2cccnc2[C@H](C)OC)c2c3cc(ccc31)-c1cnc(o1)C[C@H](NC(=O)[C@@H](COC1CN(C(=O)C#CC(C)(C)N(C)C)C1)C(C)C)C(=O)N1CCC[C@H](N1)C(=O)OCCC2 (atropisomer, axis not shown) [Compound A649]"
1000 to 10000,< 10,10 to 100,> 10000,> 10000,10 to 100,> 10000,> 10000,< 5000,"CCn1c(-c2cccnc2[C@H](C)OC)c2c3cc(ccc31)-c1cccc(c1)C[C@H](NC(=O)[C@H](C(C)C)N1CC[C@@]3(CCN(C(=O)C#CC(C)(C)N4CCC4)C3)C1=O)C(=O)N1CCC[C@H](N1)C(=O)OCC(C)(C)C2 (atropisomer, axis not shown) [Compound A733]"
1000 to 10000,10 to 100,10 to 100,> 10000,> 10000,10 to 100,1000 to 10000,> 10000,–,CCn1c(-c2cccnc2[C@H](C)OC)c2c3cc(ccc31)-c1csc(n1)C[C@H](NC(=O)C1(COC3CN(C(=O)C#CC(C)(C)N4CCC4)C3)CC1)C(=O)N1CCC[C@H](N1)C(=O)OCC(C)(C)C2 [Compound A362]
100 to 1000,< 10,< 10,1000 to 10000,1000 to 10000,< 10,1000 to 10000,1000 to 10000,–,CCn1c(-c2cccnc2[C@H](C)OC)c2c3cc(ccc31)-c1cccc(c1)C[C@H](NC(=O)[C@H](C(C)C)N1CC[C@]3(CCN(C(=O)C#CC(C)(C)N4CCC4)C3)C1=O)C(=O)N1CCC[C@H](N1)C(=O)OCC(C)(C)C2 [Compound A365]
10 to 100,100 to 1000,100 to 1000,1000 to 10000,1000 to 10000,100 to 1000,100 to 1000,1000 to 10000,< 5000,C=CC(=O)N1CC[C@]2(C1)OCN([C@H](C(=O)N[C@H]1Cc3cc(cc(C(F)(F)F)c3)-c3ccc4c(c3)c(c(-c3cccnc3[C@H](C)OC)n4CC)CC(C)(C)COC(=O)[C@@H]3CCCN(N3)C1=O)C(C)C)C2=O [Compound A557]
100 to 1000,100 to 1000,100 to 1000,100 to 1000,100 to 1000,100 to 1000,100 to 1000,1000 to 10000,< 5000,C=CC(=O)N(C)CCN1CCN(C(=O)N(C)[C@H](C(=O)N[C@H]2CN3CCC=C(C3)c3ccc4c(c3)c(c(-c3cccnc3[C@H](C)OC)n4CC)CC(C)(C)COC(=O)[C@@H]3CCCN(N3)C2=O)C(C)C)C[C@@H]1C [Compound A570]
